From the supplement of paper PMC10307832

Experiments:
Assay in all cases: relative viability (nuclei count vs DMSO), 5 days (fraction); higher = more cells survive
Adavosertib + Crizotinib = compound: C=CCn1c(=O)c2cnc(Nc3ccc(N4CCN(C)CC4)cc3)nc2n1-c1cccc(C(C)(C)O)n1 [Adavosertib] + C[C@@H](Oc1cc(-c2cnn(C3CCNCC3)c2)cnc1N)c1c(Cl)ccc(F)c1Cl [Crizotinib] (partner 1 µM)
In short: (§1)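 A single step with final 0.05% Triton X-100, 1% formaldehyde and 1 ug/ml Hoechst fixed the cells and stained nuclei 5 days after treatment. Lung cancer cell lines in 1536-well plates had been treated by pin tool the day after seeding with one drug alone or a fixed anchor-drug dose plus five library-drug doses (not always all listed) in √10 steps, and nuclei were counted on 4× images. Relative viability is the ratio of nuclei in treated wells to nuclei in vehicle wells, taken as the median of duplicate plates.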

Nelarabine + OSI-027 = compound: COc1nc(N)nc2c1ncn2[C@@H]1O[C@H](CO)[C@@H](O)[C@@H]1O [Nelarabine] + COc1cccc2cc(-c3nc([C@H]4CC[C@H](C(=O)O)CC4)n4ncnc(N)c34)[nH]c12 [OSI-027] (partner 0.5 µM)
In short: as §1

Adavosertib + Luminespib = compound: C=CCn1c(=O)c2cnc(Nc3ccc(N4CCN(C)CC4)cc3)nc2n1-c1cccc(C(C)(C)O)n1 [Adavosertib] + CCNC(=O)c1noc(-c2cc(C(C)C)c(O)cc2O)c1-c1ccc(CN2CCOCC2)cc1 [Luminespib] (partner 0.01 µM)
In short: as §1

Adavosertib + Pemetrexed = compound: C=CCn1c(=O)c2cnc(Nc3ccc(N4CCN(C)CC4)cc3)nc2n1-c1cccc(C(C)(C)O)n1 [Adavosertib] + Nc1nc2[nH]cc(CCc3ccc(C(=O)N[C@@H](CCC(=O)O)C(=O)O)cc3)c2c(=O)[nH]1 [Pemetrexed] (partner 0.2 µM)
In short: as §1

Row | Cell Line | relative viability (Adavosertib + Crizotinib; first compound 0.01 µM) | relative viability (Adavosertib + Crizotinib; first compound 0.1 µM) | relative viability (Adavosertib + Crizotinib; first compound 0.3162 µM) | relative viability (Nelarabine + OSI-027; first compound 0.01 µM) | relative viability (Nelarabine + OSI-027; first compound 0.03162 µM) | relative viability (Nelarabine + OSI-027; first compound 0.1 µM) | relative viability (Nelarabine + OSI-027; first compound 0.3162 µM) | relative viability (Nelarabine + OSI-027; first compound 1 µM) | relative viability (Adavosertib + Crizotinib; first compound 0.03162 µM) | relative viability (Adavosertib + Luminespib; first compound 0.01 µM) | relative viability (Adavosertib + Luminespib; first compound 0.03162 µM) | relative viability (Adavosertib + Luminespib; first compound 0.1 µM) | relative viability (Adavosertib + Luminespib; first compound 0.3162 µM) | relative viability (Adavosertib + Pemetrexed; first compound 0.01 µM) | relative viability (Adavosertib + Pemetrexed; first compound 0.03162 µM) | relative viability (Adavosertib + Pemetrexed; first compound 0.1 µM) | relative viability (Adavosertib + Pemetrexed; first compound 0.3162 µM)
1 | IA-LM | 0.868 | 1.02 | 0.784 | – | – | – | – | – | – | – | – | – | – | – | – | – | –
2 | LC-2-ad | 0.499 | 0.547 | 0.528 | 0.922 | 0.879 | 0.754 | 0.81 | 0.875 | 0.442 | 1.01 | 1.11 | 1.26 | 1.08 | 0.288 | 0.276 | 0.302 | 0.277
3 | LCLC-97TM1 | – | 0.357 | 0.147 | 0.713 | 0.483 | 0.357 | 0.527 | 0.56 | 0.501 | 0.78 | 0.54 | 0.982 | 0.804 | 0.214 | 0.171 | 0.17 | 0.159
4 | LCLC-103H | 1.07 | 1.06 | 1.07 | 0.499 | 0.322 | 0.459 | 0.464 | 0.486 | 0.99 | 0.865 | 1.05 | 0.892 | 0.837 | 0.445 | 0.462 | 0.427 | 0.449
5 | LK-2 | 0.278 | 0.188 | 0.224 | 0.167 | – | 0.159 | 0.178 | 0.162 | 0.249 | 0.163 | 0.216 | 0.182 | 0.183 | 0.266 | 0.238 | 0.357 | 0.215
6 | LOU-NH91 | 0.709 | 0.788 | 0.726 | 0.738 | 0.785 | 0.657 | 0.765 | 0.748 | 0.712 | 0.34 | 0.375 | 0.357 | 0.32 | 0.371 | 0.371 | 0.338 | 0.36
7 | LU99A | 0.529 | 0.561 | 0.461 | 0.315 | 0.295 | 0.307 | 0.309 | 0.291 | 0.584 | 0.314 | 0.188 | 0.221 | 0.198 | 0.156 | 0.165 | 0.144 | 0.115
8 | LXF-289 | 0.8 | 0.88 | 0.849 | 0.899 | 0.97 | 0.966 | 0.958 | 0.736 | 0.841 | 0.598 | 0.651 | 0.654 | 0.783 | 0.914 | 0.931 | 0.856 | 0.722
9 | NCI-H23 | 0.532 | 0.517 | 0.432 | 0.686 | 0.504 | 0.512 | 0.738 | 0.62 | 0.558 | 0.217 | 0.252 | 0.233 | 0.21 | 0.664 | 0.539 | 0.487 | 0.262
10 | NCI-H322M | – | 0.834 | 0.743 | 0.575 | 0.544 | 0.431 | 0.516 | 0.612 | 0.982 | 0.764 | 0.789 | 0.57 | 0.398 | 0.593 | 0.625 | 0.52 | 0.469
11 | NCI-H358 | 0.542 | 0.507 | 0.309 | 1 | 0.816 | 0.767 | 1.09 | 0.989 | 0.559 | 0.28 | 0.307 | 0.454 | 0.359 | 0.227 | 0.189 | 0.166 | 0.157
12 | NCI-H441 | 0.751 | 0.838 | 0.568 | 0.535 | 0.497 | 0.592 | 0.782 | 0.647 | 0.637 | 0.291 | 0.346 | 0.418 | 0.276 | 0.235 | 0.265 | 0.275 | 0.225
13 | NCI-H460 | 0.929 | 1.11 | 0.627 | 1.06 | 1.08 | 0.971 | 1.08 | 0.79 | 0.822 | 0.0322 | 0.0312 | 0.0317 | 0.0275 | 0.0616 | 0.0693 | 0.0573 | 0.0705
14 | NCI-H520 | 0.925 | 0.94 | 0.579 | 0.321 | 0.233 | 0.233 | 0.395 | 0.264 | 0.83 | 0.227 | 0.214 | 0.243 | 0.213 | 0.762 | 0.686 | 0.616 | 0.297
15 | NCI-H522 | – | – | – | 0.758 | 0.76 | 0.713 | 0.722 | 0.687 | – | – | 1.04 | 1.24 | 1.2 | 1.02 | 1.03 | 1.04 | 0.949
16 | NCI-H727 | 0.804 | 0.737 | 0.871 | 0.565 | 0.722 | 0.534 | 0.562 | 0.695 | 0.994 | 0.299 | 0.363 | 0.301 | 0.24 | – | – | – | –
17 | NCI-H1299 | 0.929 | 0.96 | 0.49 | – | – | – | – | – | 0.936 | – | – | – | – | – | – | – | –
18 | NCI-H1395 | – | – | – | 0.611 | 0.587 | 0.632 | 0.615 | 0.634 | – | 0.836 | 0.741 | 0.734 | 0.424 | 0.766 | 0.938 | 0.604 | 0.689
19 | NCI-H1648 | – | – | – | 0.237 | 0.282 | 0.264 | 0.256 | 0.281 | – | – | – | – | – | 0.595 | 0.719 | 0.814 | 0.483
20 | NCI-H1703 | 0.853 | 0.978 | 0.103 | – | – | – | – | – | 0.712 | – | – | – | – | – | – | – | –
21 | NCI-H1793 | – | – | – | 0.327 | 0.238 | 0.247 | 0.372 | 0.326 | – | 0.148 | 0.21 | 0.179 | 0.156 | 0.808 | 0.913 | 0.756 | 0.782
22 | NCI-H2342 | – | – | – | 0.734 | 0.533 | 0.564 | 0.75 | 0.626 | – | 0.636 | 0.676 | 0.788 | 0.784 | 0.754 | 0.826 | 0.764 | 0.844
23 | SW 900 | – | – | – | 0.569 | 0.551 | 0.565 | 0.452 | 0.655 | – | – | 0.195 | 0.169 | 0.156 | 0.457 | 0.484 | 0.492 | 0.443
